Data set [1] has as its system passive cutaneous anaphylactic (PCA) reaction. Put plainly: Passive cutaneous anaphylactic (PCA) reaction, reagin-allergen combination, in rats. It is filed as in vivo. To be noted: Rattus norvegicus; for ED100: intravenous, just before injection of allergen, read-out: ED100 (intravenous dose which produces 100% inhibition of the PCA reaction); for inhibition in vivo at 100 mg/kg: oral dose of 100 mg/kg; for inhibition in vivo at 100 mg/kg / ED50: thirty minutes before intravenous allergen; for ED50: oral, read-out: ED50 (oral dose which produces 50% inhibition of the PCA reaction). The source says:
In pharmacological tests the benzamide derivatives of general formula I suppress the passive cutaneous anaphylactic (PCA) reaction resulting from combination of tissue-fixed reaginic antibodies with the appropriate antigenic material (termed reagin-allergen combination) and carried out in an essentially similar manner to that described by Ogilvie [Nature (Lond.), (1964), 204, 91-92; Immunology, (1967), 12, 112-131]. In the method used to test these compounds sera were obtained from rats which had been infected with larvae of the nematode parasite Nippostrongylus brasiliensis; as a result of the parasitic infestation reaginic antibodies are elaborated in the host mammal and are found in sera removed from such animals. Other, non-infected, rats received intradermal injections of appropriate dilutions of such sera and were then given the allergenic material along with Evans' blue dye intravenously forty-eight hours later.
The allergenic material consisted of supernatant fluid after centrifugation of homogenates of adult Nippostrongylus brasiliensis worms which had been macerated in Tyrode's solution. The sites of PCA reactions were visualised by the effusion of Evan's blue dye from the circulation into those areas as a result of increased capillary permeability caused by the release of biologically-active substances from cells where reagin-allergen combination had occurred. The new compounds when given intravenously to the rats just before injection of allergen, or administered orally thirty minutes before intravenous injection of allergen, were able to prevent the development of the PCA reaction, as shown below in Table I, Table II and Table III.

A short description of data set [2]: Acute oral toxicity in mice. To be noted: mouse, in vivo, highest dose used 1000 mg/kg, read-out: LD50 (doses lethal to 50% of mice tested). The source says: Mice were each treated orally with one of the compounds of formula I, and they were observed daily until there had been at least 3 consecutive days without any deaths. The LD50 figures obtained (doses lethal to 50% of mice tested) are shown below in Table IV, expressed in mg/kg animal body weight.
The symbol ">" means "greater than" in this specification. Where the LD50 is said to be ">1000," a more precise estimation of the LD50 was not possible because the numbers of deaths was too small, even at the highest dose used, 1000 mg/kg.

Data set [3] in a line: Acute intravenous toxicity in mice. To be noted: mouse, in vivo. The text has this: Mice were each treated intravenously with an aqueous solution of the triethanolamine salt or sodium salt of one of the compounds of formula I, and they were observed until there had been at least 3 consecutive days without any deaths. The LD50 figures obtained (doses lethal to 50% of mice tested) are shown below in Table V, expressed in mg/kg animal body weight. In Table V, "Na" means that the sodium salt was used and "T" means that the triethanolamine salt was used.
The aqueous solutions were prepared as follows:
A mixture of the test compound and water was treated gradually with triethanolamine until complete solution occurred. The solution was then diluted with water to a concentration of test compound of either 1% w/v or 2% w/v.
The test compound was dissolved in aqueous sodium hydroxide (1N) and the solution was brought to pH 8 by treatment with hydrochloric acid. The solution was then diluted with water to a concentration of test compound of 2% w/v.
Various volumes of these solutions were then administered to the mice.

The mark [4] stands for this setting: triethanolamine salt (T), 2% w/v test solution.
Setting [5] is: sodium salt (Na), 2% w/v test solution.

For orientation: inhibition in vivo means how much of the control response was suppressed. In general, ED50 refers to the midpoint of the dose-response relation. One may read the LD50 as the dose expected to kill half of the subjects tested.

Structures are written as SMILES.

Take `CC(=O)c1cc(C(C)(C)C)cc(C(=O)Nc2nnn[nH]2)c1O` [Compound BZ, 3-acetyl-5-tert-butyl-2-hydroxy-N-(tetrazol-5-yl)benzamide]: in data set [1], the ED100 came out at 0.5 mg/kg, the inhibition in vivo at 100 mg/kg was 59% and the 50% effective dose (ED50) stood at 2.6 mg/kg. Further, the median lethal dose (LD50) in data set [2] was more than 1000 mg/kg. In addition, the LD50 in data set [3] (setting [4]) was found to be 240 mg/kg.
Turning to `CC(=O)c1cc(C(=O)Nc2nnn[nH]2)c(O)c([N+](=O)[O-])c1` [CQ, 5-acetyl-2-hydroxy-3-nitro-N-(tetrazol-5-yl)benzamide], in data set [1], the ED100 was determined as 0.2 mg/kg. For the same compound, the inhibition in vivo at 100 mg/kg in data set [1] is 56%. The values for the LD50 in data set [2] and in data set [3] (setting [4]) were more than 1000 mg/kg and 890 mg/kg, respectively.
In the case of `CC(C)(C)c1ccc(C(=O)Nc2nnn[nH]2)c(O)c1` [BA, 4-tert-butyl-2-hydroxy-N-(tetrazol-5-yl)benzamide], in data set [1], the ED100 was 10 mg/kg and the inhibition in vivo at 100 mg/kg was 37%. In addition, the LD50 in data set [2] was more than 1000 mg/kg. In data set [3] (setting [4]), the LD50 turned out to be 230 mg/kg.
Regarding `Cc1cc(C(=O)Nc2nnn[nH]2)c(O)c(S(=O)(=O)NC(C)(C)C)c1` [BT, 3-(N-tert-butylsulphamoyl)-2-hydroxy-5-methyl-N-(tetrazol-5-yl)benzamide], the LD50 in data set [2] is more than 1000 mg/kg; in data set [3] (setting [5]), 500 mg/kg.
On to `CC(=O)c1ccc(O)c(C(=O)Nc2nnn[nH]2)c1` [Compound AV, 5-acetyl-2-hydroxy-N-(tetrazol-5-yl)benzamide], for which, in data set [1], the ED100 is 10 mg/kg and the inhibition in vivo at 100 mg/kg came to 16%. Also, the LD50 in data set [2] was more than 1000 mg/kg. In data set [3] (setting [4]), the LD50 turned out to be 645 mg/kg.
On to `O=C(Nc1nnn[nH]1)c1cc(-c2ccccc2)ccc1O` [BG, 2-hydroxy-5-phenyl-N-(tetrazol-5-yl)benzamide], for which the ED100 in data set [1] worked out at 10 mg/kg. Further, the LD50 in data set [2] was more than 1000 mg/kg; in data set [3] (triethanolamine salt (T), 1% w/v test solution), 200 mg/kg.
With `O=C(Nc1nnn[nH]1)c1cccc([N+](=O)[O-])c1O` [AI, 2-hydroxy-3-nitro-N-(tetrazol-5-yl)benzamide], in data set [1], the ED100 was found to be 0.5 mg/kg, the inhibition in vivo at 100 mg/kg was determined as 68% and the ED50 lay in the range of 5 to 30 mg/kg. Besides, the 50% lethal dose (LD50) in data set [2] was more than 1000 mg/kg. Besides, the LD50 in data set [3] (setting [4]) was more than 1000 mg/kg.
Take `CC(=O)c1cc(C(=O)Nc2nnn[nH]2)c(O)c(C(C)=O)c1O` [AW, 3,5-diacetyl-2,4-dihydroxy-N-(tetrazol-5-yl)benzamide]: in data set [1], the ED100 stood at 5 mg/kg and the inhibition in vivo at 100 mg/kg came out at 84%. For the same compound, the 50% lethal dose (LD50) in data set [2] is more than 1000 mg/kg. The LD50 in data set [3] (setting [4]) amounted to 710 mg/kg.
For the compound `CSc1cccc(C(=O)Nc2nnn[nH]2)c1O` [BI, 2-hydroxy-3-methylthio-N-(tetrazol-5-yl)benzamide], the ED100 in data set [1] amounted to 20 mg/kg. Further, the LD50 in data set [3] (setting [4]) came to 580 mg/kg.
`CC(=O)c1cccc(C(=O)Nc2nnn[nH]2)c1O` [CA, 3-acetyl-2-hydroxy-N-(tetrazol-5-yl)benzamide]: in data set [1], the ED100 came to 0.1 mg/kg and the inhibition in vivo at 100 mg/kg is 64%. Moreover, the LD50 in data set [2] is more than 1000 mg/kg. Further, the LD50 in data set [3] (setting [4]) is 500 mg/kg.
As for `CCC(C)c1cc(C(C)=O)c(O)c(C(=O)Nc2nnn[nH]2)c1` (stereo not shown) [Compound BY, 3-acetyl-5-sec-butyl-2-hydroxy-N-(tetrazol-5-yl)benzamide], in data set [1], the ED100 came out at 0.5 mg/kg, the inhibition in vivo at 100 mg/kg worked out at 43% and the ED50 came to 1.8 mg/kg. The LD50 in data set [2] is more than 1000 mg/kg. For the same compound, in data set [3] (setting [4]), the LD50 was determined as 180 mg/kg.
The matching figures for `O=C(Nc1nnn[nH]1)c1cccc(Br)c1O` [Compound AL, 3-bromo-2-hydroxy-N-(tetrazol-5-yl)benzamide]: 10 mg/kg, 69%, 55 mg/kg, 794 mg/kg and 540 mg/kg.
Turning to `CCCCN(CCCC)S(=O)(=O)c1ccc(O)c(C(=O)Nc2nnn[nH]2)c1` [AQ, 5-(N,N-dibutylsulphamoyl)-2-hydroxy-N-(tetrazol-5-yl)benzamide], the LD50 in data set [2] was more than 1000 mg/kg; in data set [3] (setting [5]) it was 280 mg/kg.
For `O=C(Nc1nnn[nH]1)c1ccc(Cl)cc1O` [AX, 4-chloro-2-hydroxy-N-(tetrazol-5-yl)benzamide], the LD50 in data set [2] was more than 1000 mg/kg; in data set [3] (setting [4]), 260 mg/kg.
As to `O=C(Nc1nnn[nH]1)c1cc(C(F)(F)F)ccc1O` [Compound BV, 5-trifluoromethyl-2-hydroxy-N-(tetrazol-5-yl)benzamide], in data set [1], the ED100 was 2 mg/kg, the inhibition in vivo at 100 mg/kg amounted to 90% and the ED50 worked out at 37 mg/kg.
As for `Cc1cc(C(=O)Nc2nnn[nH]2)c(O)c(-c2nnn[nH]2)c1` [CM, 2-hydroxy-5-methyl-3,N-bis(tetrazol-5-yl)benzamide], in data set [1], the ED100 was 0.05 mg/kg and the inhibition in vivo at 100 mg/kg was 64%.
The matching figures for `O=C(Nc1nnn[nH]1)c1ccc(F)cc1O` [BD, 4-fluoro-2-hydroxy-N-(tetrazol-5-yl)benzamide]: 10 mg/kg and 75%.
For the compound `CN(C)S(=O)(=O)c1ccc(O)c(C(=O)Nc2nnn[nH]2)c1` [AB, 2-hydroxy-5-(N,N-dimethylsulphamoyl)-N-(tetrazol-5-yl)benzamide], the ED100 in data set [1] worked out at 2 mg/kg.
Consider `COc1ccc(C(=O)Nc2nnn[nH]2)c(O)c1` [AT, 2-hydroxy-4-methoxy-N-(tetrazol-5-yl)benzamide], for which, in data set [1], the ED100 was found to be 5 mg/kg and the inhibition in vivo at 100 mg/kg worked out at 8%.
The matching figures for `CC(=O)c1cc(S(N)(=O)=O)cc(C(=O)Nc2nnn[nH]2)c1O` [Compound BU, 3-acetyl-2-hydroxy-5-sulphamoyl-N-(tetrazol-5-yl)benzamide]: 0.5 mg/kg and 86%.
Turning to `Cc1cc(C=O)c(O)c(C(=O)Nc2nnn[nH]2)c1` [CI, 3-formyl-2-hydroxy-5-methyl-N-(tetrazol-5-yl)benzamide], in data set [1], the ED100 amounted to 2 mg/kg, the inhibition in vivo at 100 mg/kg came to 70% and the ED50 was 5.4 mg/kg.
Regarding `O=C(Nc1nnn[nH]1)c1ccc(O)cc1O` [AJ, 2,4-dihydroxy-N-(tetrazol-5-yl)benzamide], in data set [1], the ED100 came out at 10 mg/kg and the inhibition in vivo at 100 mg/kg is 38%.
For `N#Cc1ccc(O)c(C(=O)Nc2nnn[nH]2)c1` [CK, 5-cyano-2-hydroxy-N-(tetrazol-5-yl)benzamide], in data set [1], the ED100 amounted to 0.2 mg/kg, the inhibition in vivo at 100 mg/kg came out at 89% and the ED50 was 50 mg/kg.
`Cc1ccc(C(=O)Nc2nnn[nH]2)c(O)c1` [AK, 2-hydroxy-4-methyl-N-(tetrazol-5-yl)benzamide]: in data set [1], the ED100 came to 10 mg/kg and the inhibition in vivo at 100 mg/kg came out at 32%.
On to `CC(=O)c1cc(Br)cc(C(=O)Nc2nnn[nH]2)c1O` [CB, 3-acetyl-5-bromo-2-hydroxy-N-(tetrazol-5-yl)benzamide], for which, in data set [1], the ED100 came out at 2 mg/kg, the inhibition in vivo at 100 mg/kg was 66% and the ED50 turned out to be 64 mg/kg.
Regarding `CSc1ccc(C(=O)Nc2nnn[nH]2)c(O)c1` [BN, 2-hydroxy-4-methylthio-N-(tetrazol-5-yl)benzamide], in data set [1], the ED100 was 10 mg/kg and the inhibition in vivo at 100 mg/kg worked out at 8%.
For `O=Cc1ccc(O)c(C(=O)Nc2nnn[nH]2)c1` [BL, 5-formyl-2-hydroxy-N-(tetrazol-5-yl)benzamide], in data set [1], the ED100 was found to be 0.5 mg/kg and the inhibition in vivo at 100 mg/kg was determined as 25%.
Consider `CC(C)N(C)S(=O)(=O)c1ccc(O)c(C(=O)Nc2nnn[nH]2)c1` [AC, 2-hydroxy-5-(N-methyl-N-isopropylsulphamoyl)-N-(tetrazol-5-yl)benzamide], for which, in data set [1], the ED100 stood at 5 mg/kg and the inhibition in vivo at 100 mg/kg was 20%.
Turning to `O=Cc1cccc(C(=O)Nc2nnn[nH]2)c1O` [CH, 3-formyl-2-hydroxy-N-(tetrazol-5-yl)benzamide], in data set [1], the ED100 amounted to 0.5 mg/kg, the inhibition in vivo at 100 mg/kg came out at 75% and the 50% effective dose (ED50) is 5.3 mg/kg.
